Values quoted from earlier work, collected in patent publication US20060193787A1, “Nanoparticle-based drug delivery system” (priority 2005, published 2006).

Settings: oral delivery

CC(=O)O[C@H]1C(=O)[C@@]2(C)[C@H]([C@H](OC(=O)c3ccccc3)[C@]3(O)C[C@H](OC(=O)[C@H](O)[C@@H](NC(=O)c4ccccc4)c4ccccc4)C(C)=C1C3(C)C)[C@]1(OC(C)=O)CO[C@@H]1C[C@@H]2O [paclitaxel]
Bioavailability: less than 1%
